Source: US20060135403A1, “Therapeutic formulations for the treatment of beta-amyloid related diseases” (priority 2002, published 2006)
Counter-ions that a name gives are not always drawn. Like-named read-outs stand apart in the source and are kept apart here.

Tests used:
[1] = target: T1, Aβ1-40 (Homo sapiens, UniProt P05067); assay: Mass spectroscopy (MS) binding assay; set-up: key: “+++” indicates strong binding; “++” indicates moderate binding; “+” indicates weak binding; “−” indicates no detectable binding; settings: 200 μM test compound, 20 μM solubilized Aβ40, 20% ethanol, pH 7.4
T1 construct: 20 μM of solubilized Aβ40
T1 sequence (P05067 672-711 limits assumed): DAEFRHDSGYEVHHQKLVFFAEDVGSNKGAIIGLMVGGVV
Procedure: Test compounds were purchased from commercial sources or synthesized and screened by mass spectroscopy (“MS”) assays. The MS assay gives data on the ability of compounds to bind to an amyloid.
In the mass spectroscopy (“MS”) assay, samples were prepared as aqueous solutions containing 20% ethanol, 200 μM of a test compound and 20 μM of solubilized Aβ40. The pH value of each sample was adjusted to 7.4 (±0.2) by addition of 0.1% aqueous sodium hydroxide. The solutions were then analyzed by electrospray ionization mass spectroscopy using a Waters ZQ 4000 mass spectrometer. Samples were introduced by direct infusion at a flow-rate of […] within 2 hours after sample preparation. The source temperature was kept at 70° C. and the cone voltage was 20 V for all the analysis. Data were processed using Masslynx 3.5 software. The MS assay gives data on the ability of compounds to bind to Aβ, whereas the ThT, EM and CD assays give data on inhibition of fibrillogenesis. “+++” indicates strong binding; “++” indicates moderate binding; “+” indicates weak binding; “−” indicates no detectable binding; and entries left blank were not determined.

[2] = test system: Aβ; settings: PDAPP, cited from earlier work
[3] = test system: Aβ; settings: cited from earlier work
Target sequence in this assay (P05067 672-711 limits assumed): as above

[4] = test system: Aβ; settings: cited from earlier work; remark: listed apart in the source
[5] = target: T2, Aβ (Homo sapiens, UniProt P05067); settings: TgAPPswe, IP; cited from earlier work
T2 construct: the amyloid-β peptide (Aβ), a 39-43 amino acid protein that is produced through cleavage of the β-amyloid precursor protein (APP); host or cells: brains of transgenic mice (PDAPP, Tg2576, Tg2576+PS1, TgCRND8, TgAPPswe)

[6] = test system: Aβ; settings: TgCRND8, IP; cited from earlier work

Row | Compound | MS Binding Aβ1-40 [1] | also measured
1 | CCCC(CO)NCCCS(=O)(=O)O (racemic) [CA, 3-[(dl)-1-hydroxy-2-pentyl]amino-1-propanesulfonic acid] | +++ | 
2 | O=C(NCC(O)CS(=O)(=O)[O-])OCc1ccccc1.[Na+] (centres unmarked) [AC, N-benzyloxycarbonyl-3-amino-2-hydroxy-1-propanesulfonic acid sodium salt monohydrate] | + | 
3 | O=C(NCCCCS(=O)(=O)[O-])OCc1ccccc1.[Na+] [AD, N-benzyloxycarbonyl-4-amino-1-butanesulfonic acid sodium salt monohydrate] | + | 
4 | O=C(NCCCS(=O)(=O)[O-])OCc1ccccc1.[Na+] [AE, N-benzyloxycarbonyl-3-amino-1-propanesulfonic acid sodium salt monohydrate] | + | 
5 | O=C(NCCCS(=O)(=O)O)NC(c1ccccc1)c1ccccc1 [AF, 3-{[(benzhydrylamino)carbonyl]amino}-1-propanesulfanic acid] | + | 
6 | O=C(Cc1ccccc1)NCCCS(=O)(=O)[O-].[Na+] [AG, 3-[(phenylacetyl)amino]-1-propanesulfonic acid, sodium salt] | + | 
7 | O=C(NCCCS(=O)(=O)[O-])NCc1ccccc1.[Na+] [AH, 3-{[(benzylamino)carbonyl]amino}-1-propanesulfonic acid, sodium salt] | + | 
8 | CC(C)Cc1ccc(C(C)C(=O)NCCCS(=O)(=O)[O-])cc1.[Na+] (centres unmarked) [AL, 3-{[2-(4-isobutylphenyl)propanoyl]amino}-1-propanesulfonic acid, sodium salt] | ++ | 
9 | O=S(=O)([O-])CCCNC(=S)NCc1ccccc1.[Na+] [AM, 3-{[(benzylamino)carbonothioyl]amino}-1-propanesulfonic acid sodium salt] | + | 
10 | C[n+]1cccc(C(=O)NCCCS(=O)(=O)[O-])c1 [AN, 3-((N-methylnicotlnoyl)amino)-1-propanesulfonic acid, inner salt] | − | 
11 | O=S(=O)(O)CCCNCc1ccc2c(c1)OCO2 [AW, 3-[((1,3-benzodioxol-5-yl)methyl)amino]-1-propanesulfonic acid] | ++ | 
12 | COc1ccc(CNCCCS(=O)(=O)O)cc1OC [AX, 3-(3,4-dimethoxybenzylamino)-1-propanesulfonic acid] | +++ | 
13 | COc1cc(CNCCCS(=O)(=O)O)cc(OC)c1OC [AY, 3-(3,4,5-trimethoxybenzylamino)-1-propanesulfonic acid] | ++ | 
14 | COc1cccc(CNCCCS(=O)(=O)O)c1OC [AZ, 3-(2,3-dimethoxybenzylamino)-1-propanesulfonic acid] | ++ | 
15 | COc1cc(CNCCCS(=O)(=O)O)cc(OC)c1 [BA, 3-(3,5-dimethoxybenzylamino)-1-propanesulfonic acid] | +++ | 
16 | COc1ccc(CNCCCS(=O)(=O)O)c(OC)c1 [BB, 3-(2,4-dimethoxybenzylamino)-1-propanesulfonic acid] | +++ | 
17 | O=S(=O)(O)CCCNCc1ccc(O)c(O)c1 [BC, 3-(3,4-dihydroxybenzylamino)-1-propanesulfonic acid] | + | 

Row | Compound | MS Binding Aβ1-40 [1] | also measured
18 | NCCNS(=O)(=O)[O-].[Na+] [BI] | + | 
19 | O=S(=O)(O)CCCNCCc1c[nH]c2ccccc12 [BT, 3-{[2-(3-indolyl)ethyl]-amino}-1-propanesulfonic acid] | +++ | 
20 | O=S(=O)(O)CCCNC1CCCc2ccccc21 (centres unmarked) [BU, 3-(1,2,3,4-tetrahydro-1-naphthylamino)-1-propanesulfonic acid] | +++ | 
21 | CCNCCCS(=O)(=O)O [BV, 3-(ethylamino)-1-propanesulfonic acid] | +++ | 
22 | O=S(=O)(O)CCCNC12CC3CC(CC(C3)C1)C2 [BW, 3-(1-adamantyl)amino-1-propanesulfonic acid] | +++ | 
23 | CC(C)(C)NCCCS(=O)(=O)O [BX, 3-(t-butyl)amino-1-propanesulfonic acid] | +++ | 
24 | O=S(=O)(O)CCCNC1CC2CCC1C2 (centres unmarked) [BY, 3-(2-norbornyl)amino-1-propanesulfonic acid] | +++ | 
25 | O=S(=O)(O)CCCNC1C2CC3CC(C2)CC1C3 (centres unmarked) [BZ, 3-(2-adamantyl)amino-1-propanesulfonic acid] | +++ | 
26 | NCCCCS(=O)(=O)O [CB, 4-amino-1-butanesulfonic acid] | ++ | 
27 | N=C(N)SCCCS(=O)(=O)O [CP, 3-(amidinothio)-1-propanesulfonic acid] | + | 
28 | O=S(=O)(O)CCCN1CC=C(CCCc2ccccc2)CC1 [D, 4-(3-phenylpropyl)-1-sulfopropyl-2,3,6-tetrahydropyridine] | + | 
29 | O=S(=O)([O-])CCCC[n+]1ccc(C2CC=CCC2)cc1 (centres unmarked) [T, 4-(4-cyclohex-3-enylpyridyl) butanesulfonic acid, inner salt] | + | 
30 | Aβ40: Aβ40 peptide given orally or nasally as immunogen (Weiner 2000) |  | Change in Cerebral Levels: Amyloid Burden ([2]; nasal): −60%; Change in Cerebral Levels: Aβ, total Aβ levels ([2]; nasal): Total: −50%; Change in Cerebral Levels: Amyloid Burden ([2]; oral): 0%; Change in Cerebral Levels: Aβ, total Aβ levels ([2]; oral): Total: 0%
31 | Cholyl-LVFFA-OH |  | anti-fibrillogenic activity [3]: can act as an anti-fibrillogenic agent
32 | K6Aβ1-30: Aβ peptide immunogen of Sigurdsson 2001 |  | Change in Cerebral Levels: Amyloid Burden ([4]; Tg2576, SC): −85%; Change in Cerebral Levels: Aβ, total Aβ levels ([4]; Tg2576, SC): Total: −55%
33 | fAβ42: fibrillar Aβ42 used for active immunization |  | Change in Cerebral Levels: Aβ, levels of Aβ40 [5]: 40: +100%;; Change in Cerebral Levels: Aβ, levels of Aβ42 [5]: 42: 0%; Change in Cerebral Levels: Amyloid Burden ([2]; IP): −95%; Change in Cerebral Levels: Aβ, total Aβ levels ([2]; IP): Total: −80%; Change in Cerebral Levels: Aβ ([4]; Tg2576, IP, Aβ species not specified): −70%; Change in Cerebral Levels: Amyloid Burden ([4]; Tg2576, IP): −85%; Change in Cerebral Levels: Amyloid Burden ([4]; Tg2576, SC): −80%; Change in Cerebral Levels: Amyloid Burden [6]: −50%
